The record followed here is patent publication US20260159486A1, “BENZO[H]QUINAZOLINE-4-AMINE DERIVATIVES FOR THE TREATMENT OF CANCER” (Redona Therapeutics, Inc., priority 2021, published 2026).

One assay concerns the target T1, recombinant human CLK3 (Homo sapiens, UniProt P49761).
T1 construct: purchased Thermo Fisher Scientific PV3826
The assay can be described thus: CLK3 kinase assay (LANCE Ultra). Format: biochemical. The note with it: CLK3 0.5 nM, ATP 300 μM, 3 hours at 30° C. The essentials: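 Recombinant human CLK3 (0.5 nM) with ULight-CREBtide (50 nM) and 300 μM ATP, 3 h at 30 °C in kinase buffer; EDTA stop, then Eu-anti-phospho-CREB antibody (2 nM, 1 h RT), TR-FRET read at 665/620 nm. Inhibition normalized to DMSO and no-ATP wells; IC50 from 4-parameter fit, ten 1:3 concentrations in duplicate.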
A general note: In TR-FRET formats the signal depends on donor and acceptor labels being close together.

For a further assay, the system named is MDA-MB-231 cells. Briefly: MDA-MB-231 proliferation assay. It counts as cell-based. The note with it: Homo sapiens, MDA-MB-231, 72 h, YO-PRO-1 Iodide readout. The essentials: (§1)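 Cells seeded at 750 per well, treated next day for 72 h at 37 °C with 0.5% final DMSO. Cell number read by YO-PRO-1 fluorescence after lysis, normalized to DMSO (100%) and time-zero cells (0%). GI50 from 4-parameter logistic fit, maximum constrained to 100%.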

The next assay deals with CAL-51 cells. Briefly: CAL-51 proliferation assay. Format: cell-based. The note with it: Homo sapiens, CAL-51, 72 h, YO-PRO-1 Iodide readout. Put shortly: as §1

In general, IC50 refers to the concentration that inhibits the measured activity by half. As usually defined, the GI50 is the concentration that inhibits growth by half.

The structures appear in SMILES notation. Where only a bound is given, the exact number is not on record here.

T1 sequence (P49761 whole entry): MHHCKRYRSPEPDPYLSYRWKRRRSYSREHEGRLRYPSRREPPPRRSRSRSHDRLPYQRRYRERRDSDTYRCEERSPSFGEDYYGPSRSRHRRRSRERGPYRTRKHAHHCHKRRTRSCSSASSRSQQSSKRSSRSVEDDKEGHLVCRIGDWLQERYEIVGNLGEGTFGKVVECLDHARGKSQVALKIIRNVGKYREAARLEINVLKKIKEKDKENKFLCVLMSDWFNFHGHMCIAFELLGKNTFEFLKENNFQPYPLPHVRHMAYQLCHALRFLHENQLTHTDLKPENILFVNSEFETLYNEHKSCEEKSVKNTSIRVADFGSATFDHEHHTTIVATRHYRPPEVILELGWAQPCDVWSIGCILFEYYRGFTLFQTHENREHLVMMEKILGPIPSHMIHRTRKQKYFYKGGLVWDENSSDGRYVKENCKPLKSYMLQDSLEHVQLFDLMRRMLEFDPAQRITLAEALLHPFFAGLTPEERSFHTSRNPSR

With `C/C(=C\CO)c1c(O[C@H]2CC[C@H](N)CC2)ccc2c1CC(C)(C)c1c(N)ncnc1-2` [Example 98, (E)-3-[4-amino-8-(trans-4-aminocyclohexoxy)-5,5-dimethyl-6H-benzo[h]quinazolin-7-yl]but-2-en-1-ol], the IC50 at recombinant human CLK3 is below 30 nM. Moreover, the values for the GI50 in the assay with MDA-MB-231 cells and with CAL-51 cells were 100 to 2000 nM and below 100 nM, respectively.
As to `CN(CCC#N)c1c(N2CCNCC2)ccc2c1CC(C)(C)c1c(N)ncnc1-2` [Example 125, 3-[(4-amino-5,5-dimethyl-8-piperazin-1-yl-6H-benzo[h]quinazolin-7-yl)-methyl-amino]propanenitrile], the IC50 at recombinant human CLK3 was below 30 nM. For the same molecule, the GI50 in the assay with MDA-MB-231 cells and in the assay with CAL-51 cells was below 100 nM each time.
`CC1(C)Cc2c(ccc(O[C@H]3CC[C@@H](N4CCOCC4)CC3)c2NC[C@@H]2CNC(=O)O2)-c2ncnc(N)c21` [Example 130, (5R)-5-[[[4-amino-5,5-dimethyl-8-(cis-4-morpholinocyclohexoxy)-6H-benzo[h]quinazolin-7-yl]amino]methyl]oxazolidin-2-one]: at recombinant human CLK3, the IC50 was below 30 nM. The GI50 was above 2000 nM in the assay with MDA-MB-231 cells and 100 to 2000 nM with CAL-51 cells.
In the same order, the values of `CN(CCC#N)c1c(O[C@H]2CC[C@H](N3CCOCC3)CC2)ccc2c1CC(C)(C)c1c(N)ncnc1-2` [Example 52, 3-[[4-amino-5,5-dimethyl-8-(trans-4-morpholinocyclohexoxy)-6H-benzo[h]quinazolin-7-yl]-methyl-amino]propanenitrile] are below 30 nM, below 100 nM and below 100 nM.
As to `CC1(C)Cc2c(ccc(Br)c2NC[C@@H]2CN(CCO)C(=O)O2)-c2ncnc(N)c21` [Example 127, (5R)-5-[[(4-amino-8-bromo-5,5-dimethyl-6H-benzo[h]quinazolin-7-yl)amino]methyl]-3-(2-hydroxyethyl)oxazolidin-2-one], the IC50 at recombinant human CLK3 lay within 30 to 100 nM. Further, the GI50 with MDA-MB-231 cells and with CAL-51 cells was 100 to 2000 nM each time.
As to `CC(=O)NCCN(C)c1c(O[C@H]2CC[C@H](N)CC2)ccc2c1CC(C)(C)c1c(N)ncnc1-2` [Example 38, N-[2-[[4-amino-8-(trans-4-aminocyclohexoxy)-5,5-dimethyl-6H-benzo[h]quinazolin-7-yl]-methyl-amino]ethyl]acetamide], the concentration for half-maximal inhibition (IC50) at recombinant human CLK3 lay in the range of 30 to 100 nM. In addition, the GI50 was above 2000 nM in the assay with MDA-MB-231 cells and 100 to 2000 nM in the assay on CAL-51 cells.
For `CC1(C)Cc2c(ccc(O[C@H]3CC[C@H](N)CC3)c2SCCC#N)-c2ncnc(N)c21` [Example 108, 3-[[4-amino-8-(trans-4-aminocyclohexoxy)-5,5-dimethyl-6H-benzo[h]quinazolin-7-yl]sulfanyl]propanenitrile], the IC50 at recombinant human CLK3 was below 30 nM. For the same molecule, the GI50 in the assay on MDA-MB-231 cells is 100 to 2000 nM; in the assay with CAL-51 cells, below 100 nM.
In the same order, the values of `CCOCCN(C)c1c(O[C@H]2CC[C@H](N)CC2)ccc2c1CC(C)(C)c1c(N)ncnc1-2` [Example 36, 8-(trans-4-aminocyclohexoxy)-N7-(2-ethoxyethyl)-N7,5,5-trimethyl-6H-benzo[h]quinazoline-4,7-diamine] are 101 to 1000 nM, 100 to 2000 nM and 100 to 2000 nM.
Regarding `CN(CC1(C#N)CC1)c1c(O[C@H]2CC[C@H](N)CC2)ccc2c1CC(C)(C)c1c(N)ncnc1-2` [Example 48, 1-[[[4-amino-8-(trans-4-aminocyclohexoxy)-5,5-dimethyl-6H-benzo[h]quinazolin-7-yl]-methyl-amino]methyl]cyclopropanecarbonitrile], at recombinant human CLK3, the IC50 was below 30 nM. The GI50 with MDA-MB-231 cells and in the assay on CAL-51 cells was below 100 nM in each case.
For `COc1ccc2c(c1NCc1nnc(C(C)F)o1)CC(C)(C)c1c(N)ncnc1-2` (stereo not drawn) [Example 122, N7-[[5-(1-fluoroethyl)-1,3,4-oxadiazol-2-yl]methyl]-8-methoxy-5,5-dimethyl-6H-benzo[h]quinazoline-4,7-diamine], the IC50 on recombinant human CLK3 was 101 to 1000 nM. Besides, the GI50 is above 2000 nM with MDA-MB-231 cells and 100 to 2000 nM with CAL-51 cells.
